# Results: ChEMBL document CHEMBL1201862, “PubChem BioAssay data set” (2004)
# Active and inactive are the calls of the source.
# Tests used:
# [1] = target: Potassium channel subfamily K member 3 (Rattus norvegicus, UniProt O54912); assay: SAR analysis for the identification of selective inhibitors of the two-pore domain potassium channel TASK1(KCNK3):Automated Electrophysiology.; type: functional
# [2] = target: T1, Potassium channel subfamily K member 9 (Homo sapiens, UniProt Q9NPC2); assay: TASK3 (KCNK9) channel inhibitors, thallium flux, SAR follow-up, selectivity assay for TASK1 inhibitor project, cell-based, FluxOR thallium flux, concentration-response (AID 652211); type: functional;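 further: potency is for inhibitors of the channel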
# T1 sequence (Q9NPC2 whole entry): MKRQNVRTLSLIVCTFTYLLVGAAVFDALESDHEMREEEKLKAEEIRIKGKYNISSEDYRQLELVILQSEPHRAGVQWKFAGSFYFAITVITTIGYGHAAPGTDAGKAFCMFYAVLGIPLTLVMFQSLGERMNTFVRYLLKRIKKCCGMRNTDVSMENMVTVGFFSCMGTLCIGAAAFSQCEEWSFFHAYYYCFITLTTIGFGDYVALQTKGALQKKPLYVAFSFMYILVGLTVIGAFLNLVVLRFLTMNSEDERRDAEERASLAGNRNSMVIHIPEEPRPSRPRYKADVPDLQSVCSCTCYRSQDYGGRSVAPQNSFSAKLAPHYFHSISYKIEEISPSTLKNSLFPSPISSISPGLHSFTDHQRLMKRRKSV
# [3] = target: T1, Potassium channel subfamily K member 9; assay: KCNK9 (TASK3) current inhibition by patch clamp, SAR follow-up, selectivity assay for TASK1 (KCNK3) inhibitor project, cell-based, automated electrophysiology (AID 652210); type: functional
# [4] = Counterscreen for inhibitors of Trypanosoma brucei methionyl tRNA synthetase (MetRS): Luminescence-based cell-based high throughput dose response assay to identify compounds that are cytotoxic to Jurkat human T lymphocyte cells.; type: functional
# [5] = target: T2, Methionyl-tRNA synthetase, putative (Trypanosoma brucei brucei, UniProt Q38C91); type: functional, Trypanosoma brucei brucei strain 927/4 GUTat10.1
# T2 sequence (Q38C91 whole entry): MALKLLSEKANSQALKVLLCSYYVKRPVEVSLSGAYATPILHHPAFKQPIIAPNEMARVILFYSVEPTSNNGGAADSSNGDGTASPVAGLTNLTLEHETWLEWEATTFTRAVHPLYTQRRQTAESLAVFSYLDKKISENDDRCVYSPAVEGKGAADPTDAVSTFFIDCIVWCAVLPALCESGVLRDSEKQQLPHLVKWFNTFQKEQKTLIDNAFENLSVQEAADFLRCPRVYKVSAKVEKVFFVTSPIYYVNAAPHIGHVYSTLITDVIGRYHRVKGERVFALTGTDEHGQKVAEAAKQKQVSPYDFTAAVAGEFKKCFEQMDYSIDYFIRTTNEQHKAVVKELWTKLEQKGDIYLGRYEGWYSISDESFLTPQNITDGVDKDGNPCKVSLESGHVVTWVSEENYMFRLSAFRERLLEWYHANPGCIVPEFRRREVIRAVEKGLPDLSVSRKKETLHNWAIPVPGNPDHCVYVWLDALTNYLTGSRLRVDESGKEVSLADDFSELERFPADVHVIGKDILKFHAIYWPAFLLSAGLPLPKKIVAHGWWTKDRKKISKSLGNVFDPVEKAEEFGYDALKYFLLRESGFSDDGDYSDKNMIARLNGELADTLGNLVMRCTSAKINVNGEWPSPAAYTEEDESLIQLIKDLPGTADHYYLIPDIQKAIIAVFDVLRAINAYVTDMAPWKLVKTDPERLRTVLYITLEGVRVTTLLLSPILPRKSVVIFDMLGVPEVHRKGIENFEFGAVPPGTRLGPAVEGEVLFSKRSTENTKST
# [6] = target: T2, Methionyl-tRNA synthetase, putative; type: functional, Trypanosoma brucei brucei strain 927/4 GUTat10.1; remark: listed apart in the source
# [7] = Late stage counterscreen for inhibitors of Trypanosoma brucei methionyl tRNA synthetase (MetRS): Luminescence-based cell-based high throughput dose response assay to identify compounds that are cytotoxic to Jurkat human T lymphocyte cells.; type: functional
# [8] = target: NAD-dependent protein deacylase sirtuin-5, mitochondrial (Homo sapiens, UniProt Q9NXA8); assay: SIRT5 desuccinylase inhibitors, dose response, biochemical, fluorescence imaging, cherry-pick, set 5 (AID 720591);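 further: desuccinylation of succinyl peptide AMC substrate read as fluorescence after trypsin release; potency of inhibitors that lower fluorescence and may act on trypsin instead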
# NAD-dependent protein deacylase sirtuin-5, mitochondrial, sequence (Q9NXA8 whole entry): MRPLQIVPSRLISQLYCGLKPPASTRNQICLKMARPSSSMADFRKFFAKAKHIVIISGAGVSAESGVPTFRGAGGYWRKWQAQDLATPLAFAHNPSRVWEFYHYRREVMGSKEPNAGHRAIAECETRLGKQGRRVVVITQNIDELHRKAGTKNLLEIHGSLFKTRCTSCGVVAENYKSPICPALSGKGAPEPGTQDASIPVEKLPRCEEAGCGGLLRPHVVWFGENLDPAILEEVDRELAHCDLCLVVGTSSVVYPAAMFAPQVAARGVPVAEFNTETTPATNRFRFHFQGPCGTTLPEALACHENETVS
# Transthyretin = Transthyretin (Homo sapiens, UniProt P02766); assay: Luminescence-based cell-based high throughput dose response assay to identify activators of Transthyretin (TTR) transcription.; type: functional
# [9] = Luminescence Cell-Based Dose Response HTS to Identify Activators of Luciferase Translation or Activity in H4 […] Cells. [Related pubchem assays: 1829 (Project Summary), 1814 (Primary HTS)]; type: functional
# H4 = assay: Luminescence Cell-Based Dose Response HTS to Identify Activators of 5'UTR Stem-Loop Driven Prion Protein mRNA Translation in H4 Neuroglioblastoma Cells. [Related pubchem assays: 1829 (Project Summary), 1814 (Primary HTS)]; type: functional; details: Homo sapiens
# [10] = Luminescence Cell-Based Dose Confirmation HTS to Identify Activators of 5'UTR Stem-Loop Driven Alpha-Synuclein mRNA Translation in H4 Neuroglioblastoma Cells. [Related pubchem assays: 1829 (Project Summary), 1814 (Primary HTS)]; type: functional
# Estrogen receptor beta [11] = target: T3, Estrogen receptor beta (Homo sapiens, UniProt Q92731);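 further: recombinant ER-beta bound to coactivator SRC1 peptide in presence of estradiol agonist; inhibitors block coactivator peptide binding and lower the FRET signal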
# T3 sequence (Q92731 whole entry, the tested form may be a part): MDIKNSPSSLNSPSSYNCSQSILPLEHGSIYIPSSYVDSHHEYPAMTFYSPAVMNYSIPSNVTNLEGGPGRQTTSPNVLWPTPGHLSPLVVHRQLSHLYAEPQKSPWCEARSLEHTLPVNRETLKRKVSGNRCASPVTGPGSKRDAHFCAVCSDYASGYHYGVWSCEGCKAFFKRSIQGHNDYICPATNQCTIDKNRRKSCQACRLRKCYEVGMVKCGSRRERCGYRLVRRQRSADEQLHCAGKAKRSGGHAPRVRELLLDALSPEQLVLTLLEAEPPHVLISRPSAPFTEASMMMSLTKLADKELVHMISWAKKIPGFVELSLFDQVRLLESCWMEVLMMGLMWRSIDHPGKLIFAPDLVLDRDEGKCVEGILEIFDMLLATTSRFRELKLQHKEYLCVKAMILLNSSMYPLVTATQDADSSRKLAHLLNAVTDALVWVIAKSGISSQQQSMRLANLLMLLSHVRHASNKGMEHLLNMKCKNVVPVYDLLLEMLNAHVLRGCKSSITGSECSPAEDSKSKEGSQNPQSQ
# [12] = target: E3 ubiquitin-protein ligase UHRF1 (Homo sapiens, UniProt Q96T88); assay: Counterscreen for inhibitors of 5-meCpG-binding domain protein 2 (MBD2): TRFRET-based biochemical high throughput dose response assay to identify inhibitors of binding of ubiquitin-like with PHD and ring finger domains 1 (UHRF1) to methylated oligonucleotide.
# E3 ubiquitin-protein ligase UHRF1, sequence (Q96T88 whole entry, the tested form may be a part): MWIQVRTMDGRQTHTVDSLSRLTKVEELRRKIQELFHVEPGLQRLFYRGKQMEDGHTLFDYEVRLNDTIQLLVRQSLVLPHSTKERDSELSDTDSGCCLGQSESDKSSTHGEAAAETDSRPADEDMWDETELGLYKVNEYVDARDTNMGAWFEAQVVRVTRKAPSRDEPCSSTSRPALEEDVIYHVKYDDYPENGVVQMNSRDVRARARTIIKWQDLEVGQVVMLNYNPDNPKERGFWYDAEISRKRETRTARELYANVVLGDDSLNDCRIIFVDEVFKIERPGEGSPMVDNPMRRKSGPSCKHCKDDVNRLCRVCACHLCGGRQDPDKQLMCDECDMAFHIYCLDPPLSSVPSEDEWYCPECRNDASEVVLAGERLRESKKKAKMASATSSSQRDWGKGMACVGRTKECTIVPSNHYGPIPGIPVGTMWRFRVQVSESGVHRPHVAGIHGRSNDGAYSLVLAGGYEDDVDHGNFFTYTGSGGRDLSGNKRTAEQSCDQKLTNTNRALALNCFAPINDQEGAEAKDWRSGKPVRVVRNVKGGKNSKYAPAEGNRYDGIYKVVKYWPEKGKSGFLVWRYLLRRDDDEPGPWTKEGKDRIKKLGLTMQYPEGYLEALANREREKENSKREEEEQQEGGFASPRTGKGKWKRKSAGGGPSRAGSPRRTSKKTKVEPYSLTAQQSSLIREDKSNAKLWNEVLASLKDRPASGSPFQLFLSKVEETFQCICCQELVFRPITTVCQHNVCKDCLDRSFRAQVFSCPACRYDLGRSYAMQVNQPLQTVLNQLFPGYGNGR
# Estrogen receptor beta [13] = target: T3, Estrogen receptor beta; assay: ERβ–SRC-3 coactivator interaction inhibitors, confirmation, orthogonal assay, biochemical, ELISA, streptavidin-HRP readout (AID 1060)
# [14] = SNU-C1 cell viability reduction, dose response, CellTiter-Glo luminescence (AID 1117323); type: functional, cell-based
# [15] = CellTiter-Glo luminescent dose response of DLD-1 viability loss (AID 1117352); type: functional
# [16] = cytotoxicity toward HT-29 cells – cell-based, CellTiter-Glo luminescence, IC50, dose response (AID 1117330); type: functional
# [17] = cytotoxicity toward HCT116 cells – cell-based, CellTiter-Glo luminescence, IC50, dose response (AID 1117332); type: functional; details: HCT-116
# [18] = HCT116 cell viability decrease, GSK3B pretreatment – CellTiter-Glo, IC50, dose response (AID 1117339); type: functional; details: HCT-116
# [19] = cytotoxicity toward Colo320 cells – cell-based, CellTiter-Glo luminescence, IC50, dose response (AID 1117334); type: functional; details: COLO 320
# [20] = Concentration-dependent survival of SW480 colon cancer line, luminescence detection with CellTiter-Glo, half-maximal inhibitory concentration (AID 1117338); type: functional
# [21] = RKO cell viability reduction, dose response, CellTiter-Glo luminescence (AID 1117322); type: functional
# [22] = target: T4, Oxysterols receptor LXR-beta (Homo sapiens, UniProt P55055); type: functional, cell-based;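 further: Cell-based luminescence dose-response assay of agonist activity at LXR, run as a confirmatory counterscreen to a daf-12 agonist screen; agonist potency from rising luciferase signal of a Gal4-LXR reporter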
# T4 sequence (P55055 whole entry): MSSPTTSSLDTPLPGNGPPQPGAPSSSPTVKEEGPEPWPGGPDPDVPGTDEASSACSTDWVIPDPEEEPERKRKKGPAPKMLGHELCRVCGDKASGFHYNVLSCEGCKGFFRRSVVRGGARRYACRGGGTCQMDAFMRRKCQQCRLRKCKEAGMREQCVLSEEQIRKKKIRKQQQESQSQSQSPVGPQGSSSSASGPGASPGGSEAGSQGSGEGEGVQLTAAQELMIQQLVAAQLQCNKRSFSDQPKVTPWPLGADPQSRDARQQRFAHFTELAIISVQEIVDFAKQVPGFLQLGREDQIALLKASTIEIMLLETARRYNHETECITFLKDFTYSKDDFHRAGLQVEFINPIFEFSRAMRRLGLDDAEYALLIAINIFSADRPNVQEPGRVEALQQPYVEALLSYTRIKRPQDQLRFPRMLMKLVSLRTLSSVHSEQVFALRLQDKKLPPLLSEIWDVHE
# [23] = Luminescence-based cell-based high throughput dose response assay to identify activators of the DAF-12 from the parasite S. stercoralis (ssDAF-12).; type: functional
# [24] = target: T4, Oxysterols receptor LXR-beta; assay: LXR agonists, Gal4 luciferase reporter, dose response, counter-screen for ssDAF-12 agonist project, cell-based, luminescence, HEK293, S. stercoralis campaign (AID 720737); type: functional; details: read-out: IC50 (the source's name)
# Potassium channel subfamily K member 3, sequence (O54912 whole entry, the tested form may be a part): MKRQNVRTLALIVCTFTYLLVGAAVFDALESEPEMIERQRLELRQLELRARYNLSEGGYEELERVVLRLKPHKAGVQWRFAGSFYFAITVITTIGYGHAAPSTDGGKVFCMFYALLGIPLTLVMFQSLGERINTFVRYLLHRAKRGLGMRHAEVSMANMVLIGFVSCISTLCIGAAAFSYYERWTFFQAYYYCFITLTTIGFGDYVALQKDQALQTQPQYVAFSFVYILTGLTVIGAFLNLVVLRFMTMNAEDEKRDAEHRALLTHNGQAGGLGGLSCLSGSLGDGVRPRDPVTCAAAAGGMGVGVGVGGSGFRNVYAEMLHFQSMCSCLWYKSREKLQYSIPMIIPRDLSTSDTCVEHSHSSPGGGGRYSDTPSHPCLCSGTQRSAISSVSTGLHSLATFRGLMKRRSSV
smiles,measurement,setting,value
COc1ccccc1C(=O)Nc1cccc(NC(=O)c2cccc(C)c2)c1,IC50,[1],0.012 µM (active)
same,IC50,[2],0.26 µM (active)
same,IC50,[3],0.48 µM (active)
CC(C)(C)[C@H]1C=C(C(=O)NCc2nc3ccccc3[nH]2)O[C@@H](OCc2ccc(CO)cc2)C1,IC50,[4],44.2 µM (inactive)
same,IC50,[5],1.99 µM (active)
same,IC50,[6],3.78 µM (active)
same,IC50,[7],77 µM (inactive)
O=C(O)CCNC(=O)c1ccc(NC(=O)Cc2ccc(Cl)cc2)cc1,AC50,[8],18.8 µM (active)
COc1cccc(-c2csc(NC(=O)C3CC3)n2)c1,EC50,Transthyretin,> 167 µM (inactive)
same,EC50,[9],33.5 µM (active)
same,EC50,H4,> 120 µM (not active)
same,EC50,[10],94 µM (active)
Cc1onc(-c2ccccc2Cl)c1C(=O)NCc1ccco1,IC50,Estrogen receptor beta [11],> 50 µM (not active)
same,IC50,[12],> 43.8 µM (inactive)
same,IC50,Estrogen receptor beta [13],> 50 µM (not active)
C/C(=N\O)[C@@H](C)NCC(C)(C)CN[C@H](C)/C(C)=N/O,IC50,[14],> 20 µM (inactive)
same,IC50,[15],> 20 µM (inactive)
same,IC50,[16],> 20 µM (inactive)
same,IC50,[17],> 20 µM (inactive)
same,IC50,[18],> 20 µM (inactive)
same,IC50,[19],> 20 µM (inactive)
same,IC50,[20],> 20 µM (inactive)
same,IC50,[21],> 20 µM (inactive)
COc1cccc(-c2nc3n(n2)CCc2ccccc2-3)c1,EC50,[22],> 67.5 µM (inactive)
same,EC50,cells,> 67.5 µM (inactive)
C[C@@H](c1ccccc1)N1C[C@@H](COCc2ccccc2)Oc2cc(N3CCC[C@H]3C(N)=O)ccc2S1(=O)=O,IC50,[23],> 67.5 µM (inactive)
same,EC50,[24],> 67.5 µM (inactive)
